Experimental data as given in article PMC7849180 (Frontiers in Pharmacology, 2020).
Several values for one entry are separate records, joined by “and”; a condition that tells them apart may be missing. Equal values may be shown once.

Key:
[1] = PK, single intravenous dose; assay type: in vivo, rats; conditions: 6.1 mg/kg ZG0128 iv
Experimental: Preclinical Pharmacokinetic Properties
Pharmacokinetic Study of Single Dose Intravenous Administration in […]
ZG0163 administered via intravenous injection had low plasma clearance in rats, […]
The Tmax of the metabolite
ZG0245 in rats was 1.0 h on average, and the plasma exposure (AUC0-t) was 15.0% of the original drug. The pharmacokinetic parameters obtained after the intravenous […]
Table 10. Pharmacokinetic parameters of ZG0163 in rats administered with 6.1 mg/kg of ZG0128 via intravenous injection. […]

[2] = system: primary cells harboring the JAK2V617F mutation in patients with polycythemia vera; test: Colony forming of erythroid hematopoietic cells of polycythemia vera patients; assay type: cell-based, human; conditions: 1 μM
Source text: Suzhou Zelgen Biopharmaceuticals Co., Ltd. Jaktinib Hydrochloride Tablets Chemical Drug Class 1 New Drug and ZG0178. However, the inhibitory effect on the activity of Ba/F3-EpoR cell line […]
respectively. Obviously, this selective inhibition is associated with the aberrant expression of JAK2 in Ba/F3-EpoR-JAK2V617F mutant cells, and the degree of ZG0163 inhibition on JAK-STAT signaling pathway in this cell line. […]
cells, and the effects of ZG0163 was similar to those of positive control compounds, […]
In Vitro Inhibitory Effect of ZG0128 on Cell Lines Transfected with Oncogenes and Primary Blood Cells in Patients with Polycythemia Vera
In vitro cell culture assay was used to determine whether compound ZG0128 […]
cell line harboring a JAK2V617F mutation, and 8 HCD-57 cell lines stably transfected with oncogenic mutations JAK2V617F, MPLW515L, KITD816V, NPM-ALK, FLT3-ITD, FLT3D835H, FLT3D835Y and KRasG12V, respectively. In addition, study the inhibitory effects of compound ZG0128 on the growth of hematopoietic progenitor cells in patients with polycythemia vera.
9 cell lines were similar to those of positive control drug ZG0192. At the sub-micromolar concentration, both compounds ZG0128 and ZG0192 were able to […]
the growth of HCD-57 cells transfected with oncogenic mutations JAK2V617F, […]
spectrum inhibitory effect on tyrosine kinases. […]

[3] = Metabolic stability in liver microsomes; assay type: in vitro ADME, rat
Experimental: The metabolic stability of ZG0128 (the dihydrochloride monohydrate of ZG0163) was evaluated using human, monkey, dog, rat, and mouse liver microsomes as the in vitro models. The percentages of residues for ZG0128 after incubating in human, monkey, dog, rat, and mouse liver microsomes for 60 minutes was 55.5%, 63.1%, 67.1%, 80.3%, and 79.0%, respectively. The CLint values of in vivo clearance were calculated to be 24.1, 21.6, 33.4, 10.7, 26.0 mL/min/kg, respectively. Thus its was speculated that ZG0128 was a medium clearance drug in humans, monkeys, and mice, a high clearance drug in dogs, and a low clearance drug in rats.
Using UPLC-UV/Q-TOF MS, the potential metabolites of ZG0128 in various liver microsomes (human, monkey, dog, rat and mouse liver microsomes) incubation systems were identified and the metabolic pathways of ZG0128 were speculated. The main metabolite of ZG0128 in above five types of liver microsomes were primary alcohol metabolite formed by morpholine ring-opening (M3). […]

[4] = General physicochemical properties
Source text: Suzhou Zelgen Biopharmaceuticals Co., Ltd. Jaktinib Hydrochloride Tablets Chemical Drug Class 1 New Drug
Table 5. General physicochemical properties of Jaktinib hydrochloride […]
Appearance Yellow to orange crystalline powder; Odorless; Bitter taste […]
methylpyrrolidone; soluble in N, N-dimethyl formamide; […]
acetonitrile, dioxane, tert-butyl methyl ether or water
Jaktinib dihydrochloride monohydrate is a crystalline solid
Crystal Form containing two molecules of hydrogen chloride and one molecule of water of crystallization, with its crystal form being polymorph

With Jaktinib the AUC0-t ([1]; Female) was 26000 ng·h/mL, the “AUC0-∞” value ([1]; Female) was 26000 ng·h/mL and the CL ([1]; Female) was 3.23 ± 0.38 mL/min/kg. For the same compound, the MRT ([1]; Female) was 2.11 h, the Vss ([1]; Female) was 0.407 ± 0.063 L/kg and the t1/2 ([1]; Female) was 2.01 h. The AUC0-t ([1]; Male) was 17700 ng·h/mL, the “AUC0-∞” value ([1]; Male) was 17700 ng·h/mL and the CL ([1]; Male) was 4.92 ± 1.34 mL/min/kg. It also gave an MRT ([1]; Male) of 2.16 h, a Vss ([1]; Male) of 0.620 ± 0.120 L/kg and a t1/2 ([1]; Male) of 2.01 h. For the same compound, the AUC0-t ([1]; Overall) was 21800 ng·h/mL, the “AUC0-∞” value ([1]; Overall) was 21900 ng·h/mL and the MRT ([1]; Overall) was 2.14 h. The t1/2 ([1]; Overall) was 2.01 h, the CL ([1]; Overall, listed as ZG0163) was 4.07 mL/min/kg and 4.07 ± 1.28 mL/min/kg and the Vss ([1]; Overall, listed as ZG0163) was 0.514 L/kg and 0.514 ± 0.145 L/kg.
With `Cl.Cl.O.[2H]C1([2H])COCC([2H])([2H])N1c1ccc(Nc2nccc(-c3ccc(C(=O)NCC#N)cc3)n2)cc1` [ZG0128, Jaktinib Dihydrochloride Monohydrate] the “colony forming of erythroid hematopoietic cells” value [2] was “almost completely inhibited”, the “CLint of in vivo clearance” value [3] was 10.7 mL/min/kg and the “percentage of residue after 60 minutes” value [3] was 80.3%. The Hygroscopicity [4] was “Slightly hygroscopic”, the Solubility ([4]; 0.1 mol/L hydrochloric acid) was “slightly soluble” and the Solubility ([4]; dimethyl sulfoxide) was “freely soluble”. For the same compound, the Solubility ([4]; ethanol) was “slightly soluble in ethanol”, the Solubility ([4]; methanol) was “slightly soluble” and the Solubility ([4]; water) was “practically insoluble”.
